CS(=O)(=O)c1ccc(C(=O)C2C(=O)CCCC2=O)c([N+](=O)[O-])c1
solubility (mole fraction)
Settings | 283.15 K | 288.15 K | 293.15 K | 298.15 K | 303.15 K | 308.15 K | 313.15 K | 318.15 K | 323.15 K
in 2-pentanol | 0.000571 | 0.00081 | 0.00114 | 0.00158 | 0.00216 | 0.00294 | 0.00396 | 0.00561 | 0.00671
in MTBE | 0.000245 | 0.000282 | 0.000322 | 0.000367 | 0.000397 | 0.000473 | 0.000536 | 0.000606 | 0.000684
in cyclohexane | 0.000321 | 0.000402 | 0.000486 | 0.000616 | 0.000733 | 0.000888 | 0.00104 | 0.00122 | 0.00168
in ethanol | 0.0023 | 0.00264 | 0.00316 | 0.00386 | 0.00455 | 0.00535 | 0.00627 | 0.00734 | 0.00857
in ethyl acetate | 0.000565 | 0.000707 | 0.000879 | 0.00109 | 0.00132 | 0.00163 | 0.00198 | 0.00239 | 0.00287
in methanol | 0.00351 | 0.00401 | 0.00457 | 0.00518 | 0.00567 | 0.00663 | 0.00748 | 0.00842 | 0.00946
in methyl acetate | 0.00134 | 0.00152 | 0.00173 | 0.00194 | 0.00225 | 0.00255 | 0.00293 | 0.0033 | 0.00381
in n-butanol | 0.000708 | 0.000999 | 0.00139 | 0.00193 | 0.00273 | 0.00355 | 0.00476 | 0.00601 | 0.00731
in n-butyl acetate | 0.000418 | 0.000529 | 0.000664 | 0.000829 | 0.00103 | 0.00127 | 0.00155 | 0.0019 | 0.00231
in n-pentanol | 0.000635 | 0.000889 | 0.00123 | 0.00168 | 0.00228 | 0.00306 | 0.00407 | 0.00536 | 0.007
in n-propanol | 0.0013 | 0.00168 | 0.00216 | 0.00274 | 0.00376 | 0.00434 | 0.0054 | 0.00669 | 0.00793
in sec-butanol | 0.000341 | 0.000507 | 0.000745 | 0.00108 | 0.00145 | 0.00199 | 0.00307 | 0.00425 | 0.00584

Reference: BigSolDB 2.1
